Experimental findings from ChEMBL document CHEMBL1158839, “Dichotomins J and K, vasodilator cyclic peptides from Stellaria dichotoma” (J Nat Prod, 2005) are described below.

Active and inactive are the calls of the source. The calls are words filed in the database; no cut-off is given here.

The subject of test [1] is Aorta. The test is described as follows: Vasorelaxant activity against norepinephrine-induced contraction in Wistar rat thoracic aorta at 30 uM. Type of test: functional, tissue-based.
For test [2], the system named is Aorta. Put plainly: Vasorelaxant activity against norepinephrine-induced contraction in Wistar rat thoracic aorta at 100 uM. The test is classed as functional, tissue-based.

For the compound `CC[C@@H](C)[C@@H]1NC(=O)CNC(=O)[C@H](C)NC(=O)[C@H](Cc2ccc(O)cc2)NC(=O)[C@H](CC(C)C)NC(=O)[C@H](Cc2ccccc2)NC1=O`, the result in test [1] was Active.
For `CC[C@@H](C)[C@@H]1NC(=O)[C@H](C(C)C)NC(=O)[C@H](Cc2ccc(O)cc2)NC(=O)[C@H](Cc2ccc(O)cc2)NC(=O)[C@@H]2CCCN2C(=O)[C@H]([C@H](C)CC)NC(=O)[C@H](C(C)C)NC(=O)[C@H](C)NC(=O)[C@@H]2CCCN2C1=O`, in test [2], the outcome was Active.
